Measurements as given in article PMC11758220, “Identification of a Privileged Scaffold for Inhibition of Sterol Transport Proteins through the Synthesis and Ring Distortion of Diverse, Pseudo-Natural Products” (ACS Central Science, 2025).
pKd: −log10 of the molar value.

Tests used:
Aster-A = biological target: T1, Aster-A (Homo sapiens, UniProt Q96CP6); assay: Differential scanning fluorimetry (DSF), Aster-A; assay type: binding; settings: maximal thermal shift
T1 construct: Aster-A(359-547); GST (PreScission-cleavable) (N, cleaved yes); made in house; host or cells: E. coli OverExpress C41
T1 sequence (Q96CP6 359-547): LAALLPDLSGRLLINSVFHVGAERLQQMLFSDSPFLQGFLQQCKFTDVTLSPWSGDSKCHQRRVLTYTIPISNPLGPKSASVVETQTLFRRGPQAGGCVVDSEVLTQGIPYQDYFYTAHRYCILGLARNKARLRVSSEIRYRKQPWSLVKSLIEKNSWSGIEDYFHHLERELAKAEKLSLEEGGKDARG
Excerpt: (§1) Protein expression constructs
(§2) Human ASTER domains of Aster-A(359-547), -B(364-552) and -C(318-504) were subcloned into a pGEX-6p-2rbs vector, thus introducing the cloning artifact ‘GPLGS’.3 The pGEX-6P-1-GST-OSBP(377- […]
(§3) a gift from James H. Hurley (University of California).4 The pHIS_2His6_Thrombin_STARD4(2-205;C75S) plasmid was a gift from Young Jun Im (Chonnam National University).5 STARD5A was a gift from Nicola Burgess-Brown (Addgene plasmid #42392; http://n2t.net/addgene:42392; […]
(§4) Protein expression and purification […]
(§5) vectors including an N-terminal PreScission-cleavable glutathione S-transferase (GST)-tag were expressed in Escherichia coli (E. coli) OverExpress C41 in Terrific Broth (TB) medium for 16 h at 18 °C after the induction with 0.1 mM isopropyl β-D-1-thiogalactopyranoside (IPTG). Cells were harvested at 3500 × g for 15 minutes and lysed by sonication in buffer containing 50 mM HEPES pH 7.5, 300 mM NaCl, 10 %v/v glycerol, 5 mM dithiothreitol (DTT), 0.1 %v/v Triton X-100 and protease inhibitor mix HP plus (Serva). The lysate was purified by affinity chromatography on a GSTrap FF column (Cytiva) using an ÄKTA Start (Cytiva) in buffer containing 50 mM HEPES pH 7.5, 300 mM NaCl, 10 %v/v glycerol, 5 mM DTT and 0.01 %v/v Triton X-100. The GST-tag was cleaved overnight on the column at 4 °C. […]

panel of STPs = assay: Screen against a broad panel of the STPs using FP and DSF assays; assay type: binding, human
Excerpt: as §1, §2, §3, §4, §5

STARD3 = biological target: T2, STARD3 (Homo sapiens, UniProt Q14849); parameters: method as in Depta et al.[43]; settings: data reproduced; ref Depta et al.[43]; read-out: STARD3 Kd,app (DSF); cited from earlier work
T2 construct: STARD3(216-444); made in house; host or cells: E. coli BL21(DE3)
T2 sequence (Q14849 216-444): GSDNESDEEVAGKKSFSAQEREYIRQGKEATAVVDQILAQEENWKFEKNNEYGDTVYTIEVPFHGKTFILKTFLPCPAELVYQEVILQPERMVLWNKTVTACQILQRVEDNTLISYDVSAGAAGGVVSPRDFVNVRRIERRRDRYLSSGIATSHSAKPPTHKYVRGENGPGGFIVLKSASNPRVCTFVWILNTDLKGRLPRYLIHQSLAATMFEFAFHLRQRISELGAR

Row | SMILES | Aster-A (DSF) ΔTmmax (Aster-A) | further results
1 | CC(C)(C)OC(=O)N1CCN(c2ccc3c(c2)C24CCC5CC(CCC52C)OC4=N3)CC1 (stereo not shown) [Compound 19e] | 11.8 °C | 
2 | CC12CCC3CC1CCC21C(=Nc2ccc(N4CCNCC4)cc21)O3 (stereo not shown) [Compound 22] |  | Activity against the panel of STPs (in words) (panel of STPs): lost almost all activity
3 | CC12CCC3CC1CCC21C(=Nc2ccc(N4CCOCC4)cc21)O3 (single isomer, unassigned; (-)) [(−)-19a] | 7.5 °C | 
4 | CCN(CC)CCO[C@H]1CC[C@@]2(C)C(=CC[C@@H]3[C@@H]2CC[C@]2(C)C(=O)CC[C@@H]32)C1 [Compound U18666A, reference compound] |  | pKd (STARD3): < 4.52
